Columns and labels:
ERK1 = ERK1 (Homo sapiens, UniProt P27361); assay: Kinase panel: ERK1; assay type: biochemical; conditions: 10 μM EP009
Protocol: (§1) Achieving JAK3 selectivity remains a significant challenge in the development of new small molecules for the treatment of cancer and immune-derived diseases. As such, the inventors employed cell-based screening assays of small-molecule libraries based upon the chemical scaffold of the established JAK3 inhibitor NC1153 (Stepkowski et al., J Immunol. (2005), 175(7):4236-4246) EP009 (FIG. 2A) was selected as a lead compound due to improved intrinsic stability (>95% purity in various solvents at 37° C. for 24 hours; FIG. 3) and high-degree of JAK3 selectivity. To test JAK3 versus JAK2 specificity of EP009, the IL-2/JAK3-dependent Kit225, and IL-3/JAK2-dependent BaF/3 cell lines were used. Kit225 and BaF/3 cells growing in the presence of IL-2 or IL-3, respectively, were treated with ascending concentrations of EP009 for 12 hours and cellular JAK3 and JAK2 tyrosine phosphorylation levels detected by Western blot analysis (FIGS. 2B and 2C). Following densitometric analysis, EP009 was determined to dose-dependently reduce IL-2-mediated JAK3 tyrosine phosphorylation with a cellular 50% inhibitory concentration (IC50) between 10 and 20 μM (FIG. 2B). […] To globally evaluate specificity, the inhibitory activity of EP009 was measured against a panel of protein kinases distributed throughout the kinome using the scanEDGE profiling service (KINOMEscan). […]

TRKA = TRKA (Homo sapiens, UniProt P04629); assay: Kinase panel: TRKA; assay type: biochemical; conditions: 10 μM EP009
Protocol: as §1

RIOK2 = RIOK2 (Homo sapiens, UniProt Q9BVS4); assay: Kinase panel: RIOK2; assay type: biochemical; conditions: 10 μM EP009
Protocol: as §1

PIK3C2B = PIK3C2B (Homo sapiens, UniProt O00750); assay: Kinase panel: PIK3C2B; assay type: biochemical; conditions: 10 μM EP009
Protocol: as §1

VEGFR2 = VEGFR2 (Homo sapiens, UniProt P35968); assay: Kinase panel: VEGFR2; assay type: biochemical; conditions: 10 μM EP009
Protocol: as §1

CDK3 = CDK3 (Homo sapiens, UniProt Q00526); assay: Kinase panel: CDK3; assay type: biochemical; conditions: 10 μM EP009
Protocol: as §1

SNARK = SNARK (Homo sapiens, UniProt Q9H093); assay: Kinase panel: SNARK; assay type: biochemical; conditions: 10 μM EP009
Protocol: as §1

TGFBR1 = TGFBR1 (Homo sapiens, UniProt P36897); assay: Kinase panel: TGFBR1; assay type: biochemical; conditions: 10 μM EP009
Protocol: as §1

MLK1 = MLK1 (Homo sapiens, UniProt P80192); assay: Kinase panel: MLK1; assay type: biochemical; conditions: 10 μM EP009
Protocol: as §1

ERK1/2 = assay: Phospho-ERK1/2 in SU-DHL-1 cells (Luminex multiplex); assay type: cell-based, human; conditions: 24 hours, dose-dependent
Protocol: (§2) FIGS. 8A-8F. Effect of EP009 on ALCL cells is mediated through selective activation of ERK1/2 and JNK1/2 stress signaling pathways, and inhibition of p70 S6 kinase growth signaling pathways. SU-DHL-1 cells were treated with vehicle (PBS) or increasing amounts of EP009 (0-50 μM) for 24 hours. Cells were then lysed, clarified, and subjected to Luminex multiplex analysis to detect phosphorylated (A) ERK1/2, (B) JNK1/2, (C) p70 S6 kinase, (D) IκBα, (E) CREB, and (F) p38. Values represent mean fluorescence intensity (MFI) normalized to corresponding GAPDH MFI, while error bars represent the standard deviation (n=2). Representative data from two independent experiments are shown. Statistical significance was determined using Student's t-test. (*, p<0.05).
(§3) The MILLIPLEX MAP 8-plex Multi-Pathway Signaling Phosphoprotein kit (Millipore) was used to detect phosphorylated ERK1/2 (Thr185/Tyr187), STAT3 (Ser727), JNK1/2 (Thr183/Tyr185), p70 S6 kinase (Thr412), IκBα (Ser32), STAT5A/B (Tyr694/699), CREB (Ser133), and p38 (Thr180/Tyr182). The MILLIPLEX MAP 5-plex STAT Phosphoprotein kit (Millipore) was used to detect phosphorylated STAT1 (Tyr701), STAT2 (Tyr690), STAT3 (Tyr705), STAT5A/B (Tyr694/699), and STAT6 (Tyr641). The MILLIPLEX MAP Human Apoptosis 3-plex kit (Millipore) was used to detect cleaved PARP, cleaved Caspase 3, and total GAPDH for protein normalization.

PIK3CA = PIK3CA (Homo sapiens, UniProt P42336); assay: Kinase panel: PIK3CA; assay type: biochemical; conditions: 10 μM EP009
Protocol: as §1

LKB1 = LKB1 (Homo sapiens, UniProt Q15831); assay: Kinase panel: LKB1; assay type: biochemical; conditions: 10 μM EP009
Protocol: as §1

IGF1R = IGF1R (Homo sapiens, UniProt P08069); assay: Kinase panel: IGF1R; assay type: biochemical; conditions: 10 μM EP009
Protocol: as §1

CREB = assay: Phospho-CREB in SU-DHL-1 cells (Luminex multiplex); assay type: cell-based, human; conditions: 24 hours
Protocol: as §2, §3

PIM3 = PIM3 (Homo sapiens, UniProt Q86V86); assay: Kinase panel: PIM3; assay type: biochemical; conditions: 10 μM EP009
Protocol: as §1

AKT2 = AKT2 (Homo sapiens, UniProt P31751); assay: Kinase panel: AKT2; assay type: biochemical; conditions: 10 μM EP009
Protocol: as §1

MAPKAPK2 = MAPKAPK2 (Homo sapiens, UniProt P49137); assay: Kinase panel: MAPKAPK2; assay type: biochemical; conditions: 10 μM EP009
Protocol: as §1

ULK2 = ULK2 (Homo sapiens, UniProt Q8IYT8); assay: Kinase panel: ULK2; assay type: biochemical; conditions: 10 μM EP009
Protocol: as §1

TRKA, sequence (P04629 33-796): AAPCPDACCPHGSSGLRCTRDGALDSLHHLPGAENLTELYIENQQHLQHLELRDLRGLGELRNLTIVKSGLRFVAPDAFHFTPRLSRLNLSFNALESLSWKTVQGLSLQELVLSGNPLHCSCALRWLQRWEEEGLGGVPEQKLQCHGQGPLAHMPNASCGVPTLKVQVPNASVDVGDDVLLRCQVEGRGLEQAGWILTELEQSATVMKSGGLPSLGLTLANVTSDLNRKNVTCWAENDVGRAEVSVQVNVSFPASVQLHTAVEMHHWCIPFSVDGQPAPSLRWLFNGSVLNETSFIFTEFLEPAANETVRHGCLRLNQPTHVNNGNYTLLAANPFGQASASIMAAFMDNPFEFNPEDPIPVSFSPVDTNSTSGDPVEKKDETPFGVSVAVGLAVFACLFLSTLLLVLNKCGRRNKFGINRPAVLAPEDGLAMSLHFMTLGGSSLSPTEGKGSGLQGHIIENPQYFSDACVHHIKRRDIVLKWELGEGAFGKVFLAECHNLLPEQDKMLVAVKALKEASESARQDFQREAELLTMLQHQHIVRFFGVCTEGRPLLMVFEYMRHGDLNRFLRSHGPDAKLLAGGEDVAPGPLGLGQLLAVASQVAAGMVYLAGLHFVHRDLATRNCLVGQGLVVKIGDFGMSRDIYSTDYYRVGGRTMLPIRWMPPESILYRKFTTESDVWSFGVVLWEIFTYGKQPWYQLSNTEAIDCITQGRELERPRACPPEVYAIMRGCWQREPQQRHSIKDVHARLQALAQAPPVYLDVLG
ULK2, sequence (Q8IYT8 whole entry): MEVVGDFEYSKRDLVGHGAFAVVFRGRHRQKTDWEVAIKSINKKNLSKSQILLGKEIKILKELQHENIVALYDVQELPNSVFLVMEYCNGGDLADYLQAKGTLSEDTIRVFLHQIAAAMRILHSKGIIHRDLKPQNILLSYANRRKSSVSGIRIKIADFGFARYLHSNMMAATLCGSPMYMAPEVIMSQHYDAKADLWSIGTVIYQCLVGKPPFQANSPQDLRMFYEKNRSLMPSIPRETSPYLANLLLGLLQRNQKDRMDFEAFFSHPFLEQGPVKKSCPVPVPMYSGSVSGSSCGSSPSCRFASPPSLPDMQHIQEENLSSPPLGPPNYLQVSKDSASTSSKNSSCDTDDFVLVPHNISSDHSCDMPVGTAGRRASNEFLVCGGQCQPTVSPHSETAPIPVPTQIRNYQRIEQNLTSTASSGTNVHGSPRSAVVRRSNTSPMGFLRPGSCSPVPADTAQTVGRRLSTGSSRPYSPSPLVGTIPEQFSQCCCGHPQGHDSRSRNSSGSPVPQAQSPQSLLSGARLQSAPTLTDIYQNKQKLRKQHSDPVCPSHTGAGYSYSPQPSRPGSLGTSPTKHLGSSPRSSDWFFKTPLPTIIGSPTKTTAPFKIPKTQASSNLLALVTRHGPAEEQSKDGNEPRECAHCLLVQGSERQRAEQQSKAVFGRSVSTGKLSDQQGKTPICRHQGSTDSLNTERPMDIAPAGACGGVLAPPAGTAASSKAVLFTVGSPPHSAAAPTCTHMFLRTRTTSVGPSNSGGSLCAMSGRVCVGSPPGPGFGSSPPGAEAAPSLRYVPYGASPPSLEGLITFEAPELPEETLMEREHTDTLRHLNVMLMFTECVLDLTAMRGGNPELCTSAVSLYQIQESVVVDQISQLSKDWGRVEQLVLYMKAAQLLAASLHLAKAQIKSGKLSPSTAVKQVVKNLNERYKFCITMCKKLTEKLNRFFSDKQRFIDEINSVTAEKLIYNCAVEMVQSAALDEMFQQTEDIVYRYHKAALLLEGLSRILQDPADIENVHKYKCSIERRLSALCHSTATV
MAPKAPK2, sequence (P49137 whole entry): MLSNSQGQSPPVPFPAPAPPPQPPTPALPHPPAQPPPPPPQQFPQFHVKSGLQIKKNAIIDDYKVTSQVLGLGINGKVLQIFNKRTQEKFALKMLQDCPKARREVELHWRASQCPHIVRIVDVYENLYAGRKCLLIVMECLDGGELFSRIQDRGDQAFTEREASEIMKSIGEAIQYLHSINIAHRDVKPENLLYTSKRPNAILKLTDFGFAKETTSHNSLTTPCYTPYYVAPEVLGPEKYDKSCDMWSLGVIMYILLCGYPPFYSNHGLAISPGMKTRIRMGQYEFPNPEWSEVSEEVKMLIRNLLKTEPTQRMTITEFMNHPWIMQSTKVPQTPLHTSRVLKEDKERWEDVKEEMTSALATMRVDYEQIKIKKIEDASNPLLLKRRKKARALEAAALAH
MLK1, sequence (P80192 whole entry): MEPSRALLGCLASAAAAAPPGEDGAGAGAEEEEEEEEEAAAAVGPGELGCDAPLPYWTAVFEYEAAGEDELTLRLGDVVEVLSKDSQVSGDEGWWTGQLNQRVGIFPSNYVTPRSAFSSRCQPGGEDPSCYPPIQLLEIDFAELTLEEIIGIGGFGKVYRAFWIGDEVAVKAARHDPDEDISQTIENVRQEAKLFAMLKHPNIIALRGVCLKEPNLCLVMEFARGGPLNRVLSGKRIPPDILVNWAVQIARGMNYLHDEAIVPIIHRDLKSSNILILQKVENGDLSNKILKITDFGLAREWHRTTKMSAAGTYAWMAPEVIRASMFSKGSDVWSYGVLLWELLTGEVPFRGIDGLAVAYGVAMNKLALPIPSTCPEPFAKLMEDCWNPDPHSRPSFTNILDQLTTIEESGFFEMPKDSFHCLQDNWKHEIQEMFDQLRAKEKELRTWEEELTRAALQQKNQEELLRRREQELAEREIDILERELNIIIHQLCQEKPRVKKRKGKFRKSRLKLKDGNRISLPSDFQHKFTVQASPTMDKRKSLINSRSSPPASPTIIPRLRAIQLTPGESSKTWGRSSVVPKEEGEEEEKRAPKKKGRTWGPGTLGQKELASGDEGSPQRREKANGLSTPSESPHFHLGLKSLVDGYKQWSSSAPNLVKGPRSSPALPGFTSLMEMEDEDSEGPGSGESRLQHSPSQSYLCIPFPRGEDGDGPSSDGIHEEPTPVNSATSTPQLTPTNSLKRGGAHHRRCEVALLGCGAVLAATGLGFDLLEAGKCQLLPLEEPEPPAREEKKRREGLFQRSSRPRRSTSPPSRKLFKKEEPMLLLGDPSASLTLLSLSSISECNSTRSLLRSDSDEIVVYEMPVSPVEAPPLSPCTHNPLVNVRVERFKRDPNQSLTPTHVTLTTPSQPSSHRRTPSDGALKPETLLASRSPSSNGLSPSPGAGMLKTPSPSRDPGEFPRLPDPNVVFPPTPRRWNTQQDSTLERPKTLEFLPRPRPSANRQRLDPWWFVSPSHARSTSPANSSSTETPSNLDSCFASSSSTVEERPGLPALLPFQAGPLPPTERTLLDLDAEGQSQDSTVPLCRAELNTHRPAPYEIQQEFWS
AKT2, sequence (P31751 whole entry): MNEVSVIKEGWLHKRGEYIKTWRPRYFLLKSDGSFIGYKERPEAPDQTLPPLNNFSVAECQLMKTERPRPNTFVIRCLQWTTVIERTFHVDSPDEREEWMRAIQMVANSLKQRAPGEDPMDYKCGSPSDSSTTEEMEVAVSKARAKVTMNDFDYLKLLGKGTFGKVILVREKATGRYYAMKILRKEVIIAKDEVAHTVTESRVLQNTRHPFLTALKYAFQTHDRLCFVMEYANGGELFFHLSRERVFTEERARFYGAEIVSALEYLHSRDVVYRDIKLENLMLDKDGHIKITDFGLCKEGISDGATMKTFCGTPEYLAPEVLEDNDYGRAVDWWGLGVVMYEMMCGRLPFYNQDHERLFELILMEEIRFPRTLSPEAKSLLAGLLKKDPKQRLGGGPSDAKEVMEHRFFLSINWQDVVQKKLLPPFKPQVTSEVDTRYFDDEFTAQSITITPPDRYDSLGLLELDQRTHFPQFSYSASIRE
LKB1, sequence (Q15831 whole entry): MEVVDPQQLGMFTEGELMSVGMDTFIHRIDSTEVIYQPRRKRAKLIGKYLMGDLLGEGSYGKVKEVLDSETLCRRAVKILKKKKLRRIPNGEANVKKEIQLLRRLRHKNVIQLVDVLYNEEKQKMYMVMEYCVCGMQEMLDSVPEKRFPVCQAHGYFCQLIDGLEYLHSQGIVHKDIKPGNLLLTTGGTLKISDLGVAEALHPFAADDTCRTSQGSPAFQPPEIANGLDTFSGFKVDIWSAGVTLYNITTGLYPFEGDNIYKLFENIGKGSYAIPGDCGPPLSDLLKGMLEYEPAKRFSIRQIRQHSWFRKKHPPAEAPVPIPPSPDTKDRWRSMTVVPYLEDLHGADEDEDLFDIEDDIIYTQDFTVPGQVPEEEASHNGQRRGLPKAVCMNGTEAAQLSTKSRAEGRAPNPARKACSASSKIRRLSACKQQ
ERK1, sequence (P27361 whole entry): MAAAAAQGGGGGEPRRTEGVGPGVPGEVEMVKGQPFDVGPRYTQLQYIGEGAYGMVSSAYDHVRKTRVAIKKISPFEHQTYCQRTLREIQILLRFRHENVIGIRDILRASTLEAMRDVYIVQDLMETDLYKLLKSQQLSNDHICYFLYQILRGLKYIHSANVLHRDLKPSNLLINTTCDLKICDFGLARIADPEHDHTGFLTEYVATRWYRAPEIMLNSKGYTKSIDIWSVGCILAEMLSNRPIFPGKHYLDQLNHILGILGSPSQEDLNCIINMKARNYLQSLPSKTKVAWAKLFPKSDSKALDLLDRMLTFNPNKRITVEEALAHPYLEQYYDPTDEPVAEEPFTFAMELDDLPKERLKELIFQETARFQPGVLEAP

C=C1CCCCCCCCCC(CO)C1=O (stereo not drawn) [EP009, 2-(Hydroxymethyl)-12-methylenecyclododecanone]
Kinase Activity (% of Control) (ERK1): 100 % of Control
Kinase Activity (% of Control) (TRKA): 65 % of Control
Kinase Activity (% of Control) (RIOK2): 69 % of Control
Kinase Activity (% of Control) (PIK3C2B): 70 % of Control
Kinase Activity (% of Control) (VEGFR2): 100 % of Control
Kinase Activity (% of Control) (CDK3): 100 % of Control
Kinase Activity (% of Control) (SNARK): 82 % of Control
Kinase Activity (% of Control) (TGFBR1): 100 % of Control
Kinase Activity (% of Control) (MLK1): 100 % of Control
ERK1/2 phosphorylation (ERK1/2): induced phosphorylation and activation
Kinase Activity (% of Control) (PIK3CA): 76 % of Control
Kinase Activity (% of Control) (LKB1): 100 % of Control
Kinase Activity (% of Control) (IGF1R): 100 % of Control
CREB phosphorylation status (CREB): No statistically significant change
Kinase Activity (% of Control) (PIM3): 100 % of Control
Kinase Activity (% of Control) (AKT2): 100 % of Control
Kinase Activity (% of Control) (MAPKAPK2): 100 % of Control
Kinase Activity (% of Control) (ULK2): 58 % of Control

From patent US9371265B2, “Compositions and methods related to inhibitors of JAK kinase” (EP PHARMA, INC., priority 2012, dated 2016)
